Laboratory results as given in patent US7045532B2 (Millennium Pharmaceuticals, Inc., priority 1999, dated 2006).
Like-named read-outs stand apart in the source and are kept apart here.

Experiments:
[1] = biological target: T1, ACE-2 (Homo sapiens, UniProt Q9BYF1); experiment: ACE-2 Competitive Substrate Assay (ACS Assay); type: biochemical
T1 construct: a stop codon inserted after the serine immediately preceding the transmembrane domain; made in house; host or cells: CHO K1 cells (transient transfection, purified from conditioned medium)
T1 sequence (Q9BYF1 18-740 limits assumed): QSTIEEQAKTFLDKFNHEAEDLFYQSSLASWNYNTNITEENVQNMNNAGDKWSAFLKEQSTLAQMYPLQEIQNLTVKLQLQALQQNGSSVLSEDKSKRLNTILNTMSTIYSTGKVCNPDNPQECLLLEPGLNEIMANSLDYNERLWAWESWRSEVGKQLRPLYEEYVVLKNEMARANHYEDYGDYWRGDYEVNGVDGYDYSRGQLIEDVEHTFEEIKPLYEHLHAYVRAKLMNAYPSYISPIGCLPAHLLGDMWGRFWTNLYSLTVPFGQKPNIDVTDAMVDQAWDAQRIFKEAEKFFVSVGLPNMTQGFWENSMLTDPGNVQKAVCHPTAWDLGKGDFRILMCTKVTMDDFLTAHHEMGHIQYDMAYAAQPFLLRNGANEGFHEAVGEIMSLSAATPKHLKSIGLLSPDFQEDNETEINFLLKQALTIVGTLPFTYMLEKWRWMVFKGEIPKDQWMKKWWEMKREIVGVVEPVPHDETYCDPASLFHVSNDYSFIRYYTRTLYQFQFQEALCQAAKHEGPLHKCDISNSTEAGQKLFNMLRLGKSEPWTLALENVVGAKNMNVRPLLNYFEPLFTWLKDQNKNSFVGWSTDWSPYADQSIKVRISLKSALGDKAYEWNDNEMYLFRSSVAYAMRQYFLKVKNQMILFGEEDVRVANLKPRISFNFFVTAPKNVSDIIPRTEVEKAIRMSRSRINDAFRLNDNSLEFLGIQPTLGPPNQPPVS

[2] = biological target: ACE-2 (Rattus norvegicus, UniProt Q5EGZ1); experiment: ACE-2 Competitive Substrate Assay, rat ACE-2; type: biochemical; conditions: Ki class, compounds tested in 5% DMSO
ACE-2 (Rattus norvegicus, UniProt Q5EGZ1), sequence (Q5EGZ1 18-805): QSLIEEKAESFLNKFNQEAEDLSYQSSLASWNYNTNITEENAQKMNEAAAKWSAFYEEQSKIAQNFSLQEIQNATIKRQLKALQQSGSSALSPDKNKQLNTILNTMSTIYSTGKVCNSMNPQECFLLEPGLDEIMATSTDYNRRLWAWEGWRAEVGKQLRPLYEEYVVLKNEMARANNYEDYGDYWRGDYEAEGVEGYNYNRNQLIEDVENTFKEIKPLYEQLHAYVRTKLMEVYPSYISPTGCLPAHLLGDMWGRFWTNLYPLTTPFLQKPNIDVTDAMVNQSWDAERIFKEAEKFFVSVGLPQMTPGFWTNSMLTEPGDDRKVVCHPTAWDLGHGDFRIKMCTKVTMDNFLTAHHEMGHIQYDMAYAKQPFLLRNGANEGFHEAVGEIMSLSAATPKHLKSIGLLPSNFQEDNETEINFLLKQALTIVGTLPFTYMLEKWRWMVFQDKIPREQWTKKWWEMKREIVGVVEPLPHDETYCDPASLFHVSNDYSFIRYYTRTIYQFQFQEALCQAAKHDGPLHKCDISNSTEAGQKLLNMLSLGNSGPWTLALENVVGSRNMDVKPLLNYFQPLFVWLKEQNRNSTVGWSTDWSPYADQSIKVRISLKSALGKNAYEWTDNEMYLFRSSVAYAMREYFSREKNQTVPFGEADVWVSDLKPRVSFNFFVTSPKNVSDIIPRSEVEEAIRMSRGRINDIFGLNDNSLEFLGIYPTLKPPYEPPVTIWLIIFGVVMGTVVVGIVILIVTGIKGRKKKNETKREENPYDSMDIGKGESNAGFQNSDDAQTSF

[3] = biological target: T2, ACE (Sigma, A2580) (Sus scrofa, UniProt F1RRW5); experiment: ACE enzymatic activity assay; type: biochemical, porcine; conditions: Ki class, compounds tested in 5% DMSO
T2 construct: ACE from porcine kidney; purchased Sigma A2580; host or cells: porcine kidney
T2 sequence (F1RRW5 34-1309): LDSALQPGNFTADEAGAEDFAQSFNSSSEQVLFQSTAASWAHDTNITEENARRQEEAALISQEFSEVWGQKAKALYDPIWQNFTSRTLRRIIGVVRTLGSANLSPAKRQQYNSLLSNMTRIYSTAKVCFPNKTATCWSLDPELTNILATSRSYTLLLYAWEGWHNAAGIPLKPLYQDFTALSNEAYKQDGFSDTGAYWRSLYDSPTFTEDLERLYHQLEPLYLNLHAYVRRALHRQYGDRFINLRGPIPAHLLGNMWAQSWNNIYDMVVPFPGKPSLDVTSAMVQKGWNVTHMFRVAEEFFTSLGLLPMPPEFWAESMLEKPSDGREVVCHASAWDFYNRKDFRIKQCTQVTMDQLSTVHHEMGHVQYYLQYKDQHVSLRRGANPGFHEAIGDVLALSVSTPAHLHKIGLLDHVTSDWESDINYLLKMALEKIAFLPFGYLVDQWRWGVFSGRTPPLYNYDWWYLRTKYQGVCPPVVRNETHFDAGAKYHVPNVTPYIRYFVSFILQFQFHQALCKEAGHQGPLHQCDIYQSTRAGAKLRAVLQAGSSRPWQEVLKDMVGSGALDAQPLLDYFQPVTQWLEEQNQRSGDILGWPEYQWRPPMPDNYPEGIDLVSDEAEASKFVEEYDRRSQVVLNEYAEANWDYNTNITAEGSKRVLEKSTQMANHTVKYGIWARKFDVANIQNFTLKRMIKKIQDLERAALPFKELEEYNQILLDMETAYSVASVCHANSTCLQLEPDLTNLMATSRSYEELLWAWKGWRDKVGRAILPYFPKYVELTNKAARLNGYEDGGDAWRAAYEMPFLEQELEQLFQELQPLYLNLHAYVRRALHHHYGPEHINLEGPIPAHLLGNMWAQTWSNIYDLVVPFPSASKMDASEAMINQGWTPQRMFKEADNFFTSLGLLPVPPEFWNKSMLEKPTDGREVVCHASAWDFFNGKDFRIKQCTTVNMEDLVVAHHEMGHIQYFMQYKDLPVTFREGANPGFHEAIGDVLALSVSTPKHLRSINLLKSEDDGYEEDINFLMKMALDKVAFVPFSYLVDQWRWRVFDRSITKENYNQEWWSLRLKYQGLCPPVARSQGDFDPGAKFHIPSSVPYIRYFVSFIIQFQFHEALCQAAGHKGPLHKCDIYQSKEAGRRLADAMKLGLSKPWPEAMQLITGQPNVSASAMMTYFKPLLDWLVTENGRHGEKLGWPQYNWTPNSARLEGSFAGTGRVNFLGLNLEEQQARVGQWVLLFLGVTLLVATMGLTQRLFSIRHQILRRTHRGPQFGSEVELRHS
Method in brief: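 Fluorogenic substrate cleavage by 1 nM ACE, read at 320/405 nm after EDTA stop at ~30 min. Reactions at 25 °C, pH 7.5, in HEPES/NaCl/Brij-35 buffer; compounds tested at 12 concentrations in 5% DMSO.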

[4] = biological target: T3, Carboxypeptidase A (Bos taurus, UniProt P00730); experiment: Carboxypeptidase A activity assay; type: biochemical; conditions: Ki class, compounds tested in 5% DMSO
T3 sequence (P00730 111-419): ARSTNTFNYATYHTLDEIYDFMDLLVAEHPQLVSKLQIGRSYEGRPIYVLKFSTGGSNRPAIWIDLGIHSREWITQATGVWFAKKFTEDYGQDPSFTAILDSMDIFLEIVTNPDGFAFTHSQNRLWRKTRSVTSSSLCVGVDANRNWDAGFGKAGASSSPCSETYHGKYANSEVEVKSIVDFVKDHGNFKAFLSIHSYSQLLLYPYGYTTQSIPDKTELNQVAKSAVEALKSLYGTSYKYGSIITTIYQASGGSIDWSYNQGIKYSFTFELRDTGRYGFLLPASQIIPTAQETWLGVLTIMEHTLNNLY
Method in brief: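 Ki obtained by correcting apparent Ki for substrate, Ki=Kiapp/(1+[S]/Km), from 12-concentration series. Enzyme activity read by absorbance at 328 nm with 5% DMSO present, EDTA stop.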

[5] = Ki class, compounds tested in 5% DMSO, 12 concentrations, read-out: Human ACE-2 Activity
[6] = Ki class, compounds tested in 5% DMSO, 12 compound concentrations, Ki=Kiapp/(1+[S]/Km), read-out: Human ACE-2 Activity
[7] = Table 3, very good ACE-2 inhibiting compounds, species not given, read-out: ACE-2 Activity, Ki

Compound	Ki [1, 5]	Ki ([2]; 12 concentrations)	Ki ([3]; 12 concentrations)	Ki ([4]; 12 concentrations)	Ki [1, 6]	Ki [1, 7]	Ki ([2]; 12 compound concentrations)	Ki ([3]; 12 compound concentrations)	Ki ([4]; 12 compound concentrations)
CC(C)C[C@H](N[C@@H](C(=O)O)c1ccccc1)C(=O)O [R, 2-[(Carboxy-phenyl-methyl)-amino]-4-methyl-pentanoic acid]	> 500 nM	> 500 nM	> 50000 nM	> 50000 nM					
CC(C)CC(N[C@H](CC(=O)O)Cc1ccco1)C(=O)O (stereo partly shown) [EH, 2-(1-Carboxymethyl-2-furan-2-yl-ethylamino)-4-methyl-pentanoic acid]	> 500 nM	> 500 nM	> 50000 nM	> 50000 nM					
CC(C)(C)C[C@H](N[C@@H](CCc1ccccc1)C(=O)O)C(=O)O [CK, 2-(1-Carboxy-3-phenyl-propylamino)-4,4-dimethylpentanoic acid]	> 500 nM	100 to 500 nM	> 50000 nM	> 50000 nM					
O=C(O)[C@H](CC#Cc1ccccn1)N[C@@H](CCc1ccccc1)C(=O)O [EA, 2-(1-Carboxy-3-phenyl-propylamino)-5-pyridin-2-yl-pent-4-ynoic acid]	> 500 nM	100 to 500 nM	> 50000 nM	< 10000 nM					
CC(C)C[C@H](NC(C(=O)O)c1ccc2ccccc2c1)C(=O)O (stereo partly shown) [BR, 2-[(Carboxy-naphthalen-2-yl-methyl)-amino]-4-methyl-pentanoic acid]	> 500 nM	> 500 nM	> 50000 nM	> 50000 nM					
COc1ccc(C(N[C@@H](CC(C)C)C(=O)O)C(=O)O)cc1 (stereo partly shown) [BQ, 2-[(Carboxy-(4-methoxy-phenyl)-methyl]-amino]-4-methyl-pentanoic acid]	> 500 nM	> 500 nM	> 50000 nM	> 50000 nM					
CC(C)CC(N[C@@H](CN(C)c1ccccc1)C(=O)O)C(=O)O (stereo partly shown) [FS, 2-[1-Carboxy-2-(methyl-phenyl-amino)-ethylamino]-4-methyl-pentanoic acid]	> 500 nM	< 100 nM	> 50000 nM	10000 to 50000 nM					
CC(C)CC(N[C@H](Cc1nc[nH]n1)C(=O)O)C(=O)O (stereo partly shown) [CE, 2-[1-Carboxy-2-(1H-[1,2,4]triazol-3-yl)-ethylamino]-4-methyl-pentanoic acid]	> 500 nM	> 500 nM	> 50000 nM	> 50000 nM					
CC(C)C[C@H](NC(CN(C)c1ccccc1)C(=O)O)C(=O)O (stereo partly shown) [AP, 2-[1-Carboxy-2-(methyl-phenyl-amino)-ethylamino]-4-methyl-pentanoic acid]	> 500 nM	100 to 500 nM	> 50000 nM	10000 to 50000 nM					
CC(C)CC(N[C@H](Cc1cscn1)C(=O)O)C(=O)O (stereo partly shown) [CV, 2-(1-Carboxy-2-thiazol-4-yl-ethylamino)-4-methyl-pentanoic acid]	> 500 nM	> 500 nM	> 50000 nM	> 50000 nM					
CC(C)CC(N[C@@H](Cc1cn(Cc2ccc(C(F)(F)F)cc2)cn1)C(=O)O)C(=O)O (stereo partly shown) [EL, 2-{1-Carboxy-2-[1-(4-trifluoromethyl-benzyl)-1H-imidazol-4-yl}-ethylamino]4-methyl-pentanoic acid]	> 500 nM	100 to 500 nM	> 50000 nM	10000 to 50000 nM					
COC(=O)[C@H](Cc1c[nH]cn1)NC(CC(C)C)C(=O)O (single isomer, unassigned) [CT, 2-[2-(1H-Imidazol-4-yl)-1-methoxycarbonyl-ethylamino]-4-methyl-pentanoic acid]	> 500 nM	> 500 nM	> 50000 nM	> 50000 nM					
CC(C)CC(N[C@@H](Cc1c[nH]cn1)C(=O)O)C(=O)O (single isomer, unassigned) [BK, 2-[1-Carboxy-2-(1H-imidazol-4-yl)-ethylamino]4-methyl-pentanoic acid]	> 500 nM	100 to 500 nM	> 50000 nM	> 50000 nM					
CC(C)CC(N[C@@H](Cc1c[nH]cn1)C(=O)NCC(=O)O)C(=O)O (stereo partly shown) [FD, 2-[1-(Carboxymethyl-carbamoyl)-2-(1H-imidazol-4-yl)-ethylamino]4-methyl-pentanoic acid]	> 500 nM	> 500 nM	< 10000 nM	> 50000 nM					
O=C(O)[C@H](CCc1ccccc1)N[C@@H](CC1CC1)C(=O)O [CL, 2-(1-Carboxy-2-cyclopropyl-ethylamino)-4-phenyl-butync acid]	> 500 nM	100 to 500 nM	> 50000 nM	> 50000 nM					

Continued, values first:

Ki [1, 5]	Ki ([2]; 12 concentrations)	Ki ([3]; 12 concentrations)	Ki ([4]; 12 concentrations)	Ki [1, 6]	Ki [1, 7]	Ki ([2]; 12 compound concentrations)	Ki ([3]; 12 compound concentrations)	Ki ([4]; 12 compound concentrations)	Compound
100 to 500 nM	100 to 500 nM	> 50000 nM	> 50000 nM						CC(C)CC(N[C@@H](Cc1cncn1COCc1ccccc1)C(=O)O)C(=O)O (single isomer, unassigned) [EN, 2-[2-(3-Benzyloxymethyl-3H-imidazol-4-yl)-1-carboxy-ethylamino]-4-methyl-pentanoic acid]
				< 100 nM	50 to 100 nM	100 to 500 nM	< 10000 nM	< 10000 nM	CC(C)CC(N[C@@H](Cc1cncn1Cc1ccc(C(C)C)cc1)C(=O)O)C(=O)O (single isomer, unassigned) [HU, 2-[1-Carboxy-2-[3-(4-isopropyl-benzyl)-3H-imidazol-4-yl]-ethylamino)4-methyl-pentanoic acid]
> 500 nM	> 500 nM	> 50000 nM	> 50000 nM						CC(C)CC(N[C@@H](Cc1cncn1COCc1ccccc1)C(=O)O)C(=O)O (single isomer, unassigned) [FG, 2-[2-(3-Benzyloxymethyl-3H-imidazol-4-yl)-1-carboxy-ethylamino]-4-methyl-pentanoic acid]
				< 100 nM	< 50 nM	< 100 nM	10000 to 50000 nM	10000 to 50000 nM	Cc1cccc(Cn2cncc2C[C@H](NC(CC(C)C)C(=O)O)C(=O)O)c1 (single isomer, unassigned) [HO, 2-[1-Carboxy-2-[3-(3-methyl-benzyl)-3H-imidazol-4-yl]-ethylamino]4-methyl-pentanoic acid]
> 500 nM	100 to 500 nM	> 50000 nM	> 50000 nM						CC(C)CC(N[C@@H](Cc1cncn1Cc1cccc([N+](=O)[O-])c1)C(=O)O)C(=O)O (single isomer, unassigned) [GB, 2-[1-Carboxy-2-[3-(3-nitro-benzyl)-3H-imidazol-4-yl]-ethylamino]-4-methyl-pentanoic acid]
				< 100 nM	< 50 nM	< 100 nM	10000 to 50000 nM	10000 to 50000 nM	CC(C)CC(N[C@@H](Cc1cncn1Cc1cccc(Cl)c1)C(=O)O)C(=O)O (single isomer, unassigned) [HC, 2-[1-Carboxy-2-[3-(3-chloro-benzyl)-3H-imidazol-4-yl]-ethylamino)4-methyl-pentanoic acid]
< 100 nM	< 100 nM	> 50000 nM	10000 to 50000 nM						CC(C)CC(N[C@@H](Cc1cncn1Cc1ccc(C(F)(F)F)cc1)C(=O)O)C(=O)O (stereo partly shown) [GI, 2-[1-Carboxy-2-[3-(4-trifluoromethyl-benzyl)-imidazol-4-yl]-ethylamino]-4-methyl-pentanoic acid]
